For three compounds, mutagenic call results are on record in PubChem BioAssay AID1259407 (Chemical Carcinogenesis Research Information System (CCRIS), 2018).

In this series the test system is CCRIS mutagenicity, Ames/micronucleus/aberration tests. As to the kind of experiment: CCRIS mutagenicity studies.
Where [1] appears, read: Test System: AMES SALMONELLA TYPHIMURIUM, Strain/Indicator: TA100, Metabolic Activation: NONE, Method: PREINCUBATION

Calls of active or inactive are those of the source. How the calls were made is not given here.

Regarding `CCN(CC)CCCN`, the mutagenic call by setting is: (Test System: AMES SALMONELLA TYPHIMURIUM, Strain/Indicator: TA98, Metabolic Activation: NONE, Method: PREINCUBATION) “inactive; negative”; (Test System: AMES SALMONELLA TYPHIMURIUM, Strain/Indicator: TA98, Metabolic Activation: RAT, LIVER, S-9, PCB, Method: PREINCUBATION) “inactive; negative”; under setting [1], “inactive; negative”; (Test System: AMES SALMONELLA TYPHIMURIUM, Strain/Indicator: TA100, Metabolic Activation: RAT, LIVER, S-9, PCB, Method: PREINCUBATION) “inactive; negative”.
Consider `CN(N=O)C(=O)NC1O[C@H](CO)[C@@H](O)[C@H](O)[C@H]1O` (stereo partly specified), for which the mutagenic call (Test System: CHINESE HAMSTER V-79, Strain/Indicator: V-79/8-AZAGUANINE, Metabolic Activation: NONE, Method: STANDARD PLATE) was “active; positive”.
With `ClC(Cl)(Cl)CC1CO1` (stereo unspecified), the mutagenic call (Test System: AMES SALMONELLA TYPHIMURIUM, Strain/Indicator: TA100, Metabolic Activation: HAMSTER, LIVER, S-9, AROCLOR 1254 (10%), Method: PREINCUBATION) is “inactive; negative”; the mutagenic call under setting [1] was “active; positive”; the mutagenic call (Test System: AMES SALMONELLA TYPHIMURIUM, Strain/Indicator: TA100, Metabolic Activation: RAT, LIVER, S-9, AROCLOR 1254 (10%), Method: PREINCUBATION) is “inactive; negative”; the mutagenic call (Test System: AMES SALMONELLA TYPHIMURIUM, Strain/Indicator: TA1535, Metabolic Activation: HAMSTER, LIVER, S-9, AROCLOR 1254 (10%), Method: PREINCUBATION) is “inactive; negative”; the mutagenic call (Test System: AMES SALMONELLA TYPHIMURIUM, Strain/Indicator: TA1535, Metabolic Activation: NONE, Method: PREINCUBATION) is “inactive; negative”; the mutagenic call (Test System: AMES SALMONELLA TYPHIMURIUM, Strain/Indicator: TA1535, Metabolic Activation: RAT, LIVER, S-9, AROCLOR 1254 (10%), Method: PREINCUBATION) was “inactive; negative”.
